Measurements as given in patent publication US10835623B2, “Manganese-based chelate conjugates for molecular MR imaging” (The General Hospital Corporation, priority 2015, dated 2020).

Columns and labels:
[1] = read-out: Kd for HA; cited from earlier work
[2] = Relaxivity in PBS / Tris buffer / water (Bruker mq60 Minispec); type: physicochemical; settings: 1.41 T, 37° C.
Experimental: (§1) NMR spectra were recorded on a 500 MHz Varian spectrometer at 25° C. unless otherwise noted. Chemical shifts are reported in δ (ppm). For ^1H and ^13C NMR spectra, the residual solvent peaks were used as internal reference except for ^13C NMR recorded in D2O where dioxane was used as the internal references (Fulmer, Organometallics 2010, 29, 2176.).^1 Relaxivity measurements were performed on a Bruker mq60 Minispec, 1.41 T and 37° C. Longitudinal (T1) relaxation was acquired via an inversion recovery experiment using 10 inversion times of duration ranging between 0.05×T1 and 5×T1; tranverse […] relaxation was measured using a […] spin-echo experiment. Relaxivity (r1,2) was determined from the slope of a plot of 1/T1,2 vs. [Mn] for at least 4 concentrations. The transverse (T2) relaxation times of ^17O were acquired at 11.7 T from the full-width at half-height of the H2^17O signal (Gale, Carvan, J. Am. Chem. Soc. 2013, 135, 18600). ^17O T2 relaxivity (r2^O) was calculated by dividing the Mn-imparted increase in 1/T2 relative to neat H2O (pH 3) by the Mn concentration in mM. 0.7-1.0 mL NMR samples were enriched with a 10 μL of 18% H2^17O.

[3] = test system: plasma proteins such as serum albumin; test: Relaxivity in human blood plasma; type: physicochemical; settings: 1.41 T, 37° C.
Experimental: as §1
Incorporation of lipophilic functionality into the chelate-metal complexes promotes binding to plasma proteins such as serum albumin. This binding provides a change in relaxivity measured in human blood plasma compared to that measured in PBS. In most cases, a large (40-170%) increase in relaxivity (r1 or r2) is observed (Table 1).

Substance | Kd [1] | r1 in PBS [2] | r1 in human blood plasma [3]
GAHWQFNALTVR | ~1000 nM | – | –
Na[Mn(PyC3A-5-hydroxymethyl)] [Compound 7] | – | 2.1 mM⁻¹ s⁻¹ | 5.7 mM⁻¹ s⁻¹
Na[Mn(PyC3A-5-hydrazide)] [Compound 25] | – | 3.4 mM⁻¹ s⁻¹ | 5.2 mM⁻¹ s⁻¹
Na[Mn(PyC3A-5-methyl ester)] [Compound 4] | – | 3.1 mM⁻¹ s⁻¹ | 2.1 mM⁻¹ s⁻¹
Na[Mn(PyC3A-4-methoxy-3.5-dimethyl) [Compound 13] | – | 2.5 mM⁻¹ s⁻¹ | 3.5 mM⁻¹ s⁻¹
Na[Mn(PyC3A-3-ethyl ester)] [Compound 10] | – | 2.7 mM⁻¹ s⁻¹ | 5.8 mM⁻¹ s⁻¹
